Earlier results as cited in US20030134846A1, “Treatment of trypanosoma brucei with farnesyl protein transferase inhibitors” (Schering Corporation, priority 2001, published 2003).

Conditions: patients treated for second stage infection; can lead to death

Question: With `Nc1nc(N)nc(Nc2ccc([As]3SCC(CO)S3)cc2)n1` (stereo not shown) [melarsoprol] as the compound, how does the “reactive encephalopathy, occurrence in patients” value read?
Answer: 5-10%
